# Laboratory results from ChEMBL document CHEMBL2375211, “2-methoxyjuglone induces apoptosis in HepG2 human hepatocellular carcinoma cells and exhibits in vivo antitumor activity in a H22 mouse hepatocellular carcinoma model” (J Nat Prod, 2013).
# The source made the active and inactive calls. The calls are words filed in the database; no cut-off is given here.
# Legend:
# [1] = system: HepG2; test: Cell cycle arrest in human HepG2 cells assessed as accumulation at S phase at 1.6 ug/mL after 24 hrs by propidium iodide staining-based flow cytometric analysis (reference value: 46%); format: functional
# [2] = system: HepG2; test: Cell cycle arrest in human HepG2 cells assessed as accumulation at sub-G1 phase at 1.6 ug/mL after 48 hrs by propidium iodide staining-based flow cytometric analysis (reference value: 3%); format: functional
# [3] = system: HepG2; test: Cell cycle arrest in human HepG2 cells assessed as accumulation at G1 phase at 4.8 ug/mL after 24 hrs by propidium iodide staining-based flow cytometric analysis (reference value: 45%); format: functional
# [4] = system: HepG2; test: Induction of apoptosis in human HepG2 cells assessed as mitochondrial cytochrome c-dependent caspase-3 activation at 1.6 to 4.8 ug/mL after 24 hrs by Western blot analysis; format: functional, cell-based
# [5] = system: HepG2; test: Cell cycle arrest in human HepG2 cells assessed as accumulation at sub-G1 phase at 3.2 ug/mL after 48 hrs by propidium iodide staining-based flow cytometric analysis (reference value: 3%); format: functional
# [6] = system: HepG2; test: Cell cycle arrest in human HepG2 cells assessed as accumulation at sub-G1 phase at 1.6 ug/mL after 24 hrs by propidium iodide staining-based flow cytometric analysis (reference value: 4%); format: functional
# [7] = system: HepG2; test: Cell cycle arrest in human HepG2 cells assessed as accumulation at G1 phase at 3.2 ug/mL after 48 hrs by propidium iodide staining-based flow cytometric analysis (reference value: 64%); format: functional
# [8] = system: HepG2; test: Cell cycle arrest in human HepG2 cells assessed as accumulation at sub-G1 phase at 6.4 ug/mL after 48 hrs by propidium iodide staining-based flow cytometric analysis (reference value: 3%); format: functional
# [9] = system: HepG2; test: Cytotoxicity against human HepG2 cells assessed as decrease in cell viability at 1.6 to 8 ug/mL by MTT assay; format: functional, cell-based; conditions: TDE = time-dependent effect
# [10] = system: HepG2; test: Induction of apoptosis in human HepG2 cells assessed as nuclear condensation at 4.8 ug/mL after 24 hrs by acridine orange/ethidium bromide staining-based fluorescence microscopic analysis; format: functional, cell-based
# [11] = system: HepG2; test: Cell cycle arrest in human HepG2 cells assessed as accumulation at sub-G1 phase at 8 ug/mL after 48 hrs by propidium iodide staining-based flow cytometric analysis (reference value: 3%); format: functional
# [12] = system: HepG2; test: Induction of apoptosis in human HepG2 cells assessed as increase in mitochondrial cytochrome c release after 24 hrs by Western blot analysis; format: functional, cell-based
# [13] = system: HepG2; test: Induction of apoptosis in human HepG2 cells assessed as increase in early apoptotic cells after 24 hrs by annexin V-FITC/propidium iodide staining-based FACS flow cytometric analysis; format: functional, cell-based
# [14] = system: HepG2; test: Induction of apoptosis in human HepG2 cells assessed as mitochondrial cytochrome c-dependent caspase-9 activation at 1.6 to 4.8 ug/mL after 24 hrs by Western blot analysis; format: functional, cell-based
# [15] = system: HepG2; test: Cell cycle arrest in human HepG2 cells assessed as accumulation at G2/M phase at 8 ug/mL after 48 hrs by propidium iodide staining-based flow cytometric analysis (reference value: 5%); format: functional
# [16] = system: HepG2; test: Induction of apoptosis in human HepG2 cells assessed as membrane damage at 4.8 to 8 ug/mL after 24 hrs by acridine orange/ethidium bromide staining-based fluorescence microscopic analysis; format: functional, cell-based
# [17] = system: HepG2; test: Cell cycle arrest in human HepG2 cells assessed as accumulation at S phase at 1.6 ug/mL after 48 hrs by propidium iodide staining-based flow cytometric analysis (reference value: 31%); format: functional
# [18] = system: HepG2; test: Induction of apoptosis in human HepG2 cells assessed as increase in Bax level after 24 hrs by Western blot analysis; format: functional, cell-based
# [19] = system: HepG2; test: Cell cycle arrest in human HepG2 cells assessed as accumulation at S phase at 4.8 ug/mL after 48 hrs by propidium iodide staining-based flow cytometric analysis (reference value: 31%); format: functional
# [20] = system: HepG2; test: Cell cycle arrest in human HepG2 cells assessed as accumulation at G2/M phase at 6.4 ug/mL after 48 hrs by propidium iodide staining-based flow cytometric analysis (reference value: 5%); format: functional
# [21] = system: HepG2; test: Cytotoxicity against human HepG2 cells assessed as cell viability after 48 hrs by MTT assay; format: functional, cell-based; conditions: HepG2, 48 h
# [22] = system: HepG2; test: Cell cycle arrest in human HepG2 cells assessed as accumulation at sub-G1 phase at 8 ug/mL after 24 hrs by propidium iodide staining-based flow cytometric analysis (reference value: 4%); format: functional
# [23] = system: HepG2; test: Cell cycle arrest in human HepG2 cells assessed as accumulation at sub-G1 phase at 3.2 ug/mL after 24 hrs by propidium iodide staining-based flow cytometric analysis (reference value: 4%); format: functional
# [24] = system: HepG2; test: Cell cycle arrest in human HepG2 cells assessed as accumulation at G1 phase at 3.2 ug/mL after 24 hrs by propidium iodide staining-based flow cytometric analysis (reference value: 45%); format: functional
# [25] = system: HepG2; test: Cell cycle arrest in human HepG2 cells assessed as accumulation at G1 phase at 1.6 ug/mL after 24 hrs by propidium iodide staining-based flow cytometric analysis (reference value: 45%); format: functional
# [26] = system: HepG2; test: Cell cycle arrest in human HepG2 cells assessed as accumulation at G2/M phase at 3.2 ug/mL after 24 hrs by propidium iodide staining-based flow cytometric analysis (reference value: 9%); format: functional
# [27] = system: HepG2; test: Cell cycle arrest in human HepG2 cells assessed as accumulation at S phase at 8 ug/mL after 48 hrs by propidium iodide staining-based flow cytometric analysis (reference value: 31%); format: functional
# [28] = system: HepG2; test: Induction of apoptosis in human HepG2 cells assessed as PARP cleavage at 1.6 to 4.8 ug/mL after 24 hrs by Western blot analysis; format: functional, cell-based
# [29] = system: HepG2; test: Cell cycle arrest in human HepG2 cells assessed as accumulation at sub-G1 phase at 4.8 ug/mL after 24 hrs by propidium iodide staining-based flow cytometric analysis (reference value: 4%); format: functional
# [30] = system: HepG2; test: Cell cycle arrest in human HepG2 cells assessed as accumulation at G1 phase at 6.4 ug/mL after 24 hrs by propidium iodide staining-based flow cytometric analysis (reference value: 45%); format: functional
# [31] = system: HepG2; test: Induction of apoptosis in human HepG2 cells assessed as appearance of membrane blebbing at 4.8 to 8 ug/mL after 24 hrs by inverted microscopic analysis relative to control; format: functional, cell-based
smiles,measurement,setting,value
COC1=CC(=O)c2c(O)cccc2C1=O,Activity,[1],62%
same,Activity,[2],6%
same,Activity,[3],38%
same,Activity,[4],Active
same,Activity,[5],4%
same,Activity,[6],5%
same,Activity,[7],35%
same,Activity,[8],18%
same,Activity,[9],tde
same,Activity,[10],Active
same,Activity,[11],33%
same,Activity,[12],Dose-dependent effect
same,Activity,[13],Dose-dependent effect
same,Activity,[14],Active
same,Activity,[15],0%
same,Activity,[16],Active
same,Activity,[17],49%
same,Activity,[18],Dose-dependent effect
same,Activity,[19],66%
same,Activity,[20],2%
same,IC50,[21],3.7 µg/mL
same,Activity,[22],7%
same,Activity,[23],2%
same,Activity,[24],34%
same,Activity,[25],37%
same,Activity,[26],2%
same,Activity,[27],46%
same,Activity,[28],Active
same,Activity,[29],7%
same,Activity,[30],37%
same,Activity,[31],Active
